# Laboratory results reported in PMC9886550, “Molecular mechanism of topoisomerase poisoning by the peptide antibiotic albicidin” (Nature Catalysis, 2023).
# Key:
# Type in all cases: biochemical
# E. coli Topo IV = E. coli Topo IV (Escherichia coli, UniProt P0AFI2+P20083); experiment: E. coli Topo IV relaxation assay; settings: tested 0.1, 1, 10, 100 µM
# Procedure: E. coli Topo IV relaxation assays were set up in the same way as supercoiling assays with some modifications. The substrate was negatively supercoiled DNA, E. coli Topo IV relaxation buffer (50 mM K-HEPES pH 7.6, 100 mM potassium glutamate, 10 mM magnesium acetate, 10 mM DTT, 1 mM ATP and 0.05 mg ml^−1 BSA) and reactions were incubated for 1 h. Reactions were stopped in the same way as supercoiling assays.
# (§1) Results were visualized by agarose gel electrophoresis: 1% agarose Tris-acetate-EDTA (TAE) gels were run without ethidium bromide (supercoiling) or with 10 µg ml^−1 ethidium bromide (cleavage) at 8 V cm^−1.
# Supplementary Figure 11. Activity of albicidin and Albi-1/2/3 on E. coli topoisomerase IV. a. Plasmid relaxation activity of E. coli topo IV in the presence of albicidin, Albi-1, Albi-2 and Albi-3. First lane: negatively supercoiled pBR322; second lane: innate relaxation activity of E. coli topo IV (12.5 nM); third lane: effect of 20 µM CFX; subsequent lanes: effect of increasing compound concentration (0.1, 1, 10, 100 […]
# higher concentration. b. Cleavage activity of E. coli topo IV in the presence of albicidin, Albi-1, Albi-2 and Albi-3. First lane: negatively supercoiled pBR322; second lane: innate cleavage activity of E. coli topo IV (15 nM); third lane: effect of 20 µM CFX; subsequent lanes: effect of increasing compound concentration (0.1, 1, 10, 100 µM). […]
# concentration. All experiments were carried out in triplicates and representative gels […]
# (1 picture or pasted object on this page, not shown here)
# WT E. coli gyrase = target: T1, WT E. coli gyrase (Escherichia coli, UniProt P0AES4+P0AES6); experiment: biochemical; settings: for % cleaved DNA Average: average of replicates
# T1 construct: alternative cryo-EM approach involving full-length E. coli gyrase; 10-His (cleaved yes); Twin-Strep (cleaved yes); made in house
# Procedure: (§2) For DNA gyrase supercoiling assays to characterize gyrase mutants, 15 µl reactions were set up containing 250 ng of relaxed DNA, E. coli gyrase supercoiling buffer (35 mM Tris–Cl pH 7.5, 24 mM KCl, 4 mM MgCl2, 2 mM DTT, 1.8 mM spermidine, 1 mM ATP, 6.0% (w/v) glycerol, and 0.1 mg ml^−1 BSA), gyrase subunits and inhibitors. Concentrations of enzyme and inhibitor are stated in the figure legends. Inhibitors were diluted in the following way to reduce the chance of precipitation: stock compound in 100% DMSO was diluted to 5 mM in 100% DMSO. This compound solution was diluted to 1 mM by stepwise addition of 1 µl of 50% DMSO with thorough mixing via pipetting after each addition. All subsequent dilutions up to 100 µM were performed in the same way using H2O. After this point, compounds were stable and could be diluted in the normal way. Reactions were incubated at 37 °C for 30 min before stopping with 15 µl chloroform:isoamyl alcohol (24:1 v/v) and 15 µl of STEB (40% (w/v) sucrose, 100 mM Tris–Cl pH 8, 10 mM EDTA, 0.5 mg ml^−1 bromophenol blue).
# (§3) Cleavage assays were set up in the same way as supercoiling assays with some modifications. The concentration of enzyme was increased 4-fold relative to the supercoiling assay and reactions were incubated for 1 h before addition of 0.2% SDS and proteinase K (0.2 mg ml^−1) and further incubation at 37 °C for 30 min to trap cleavage complexes. Reactions were stopped in the same way as supercoiling assays.
# as §1
# (§4) DNA cleavage gels were analysed using densitometry (ImageJ). Experiments were carried out in triplicate and expressed as mean ± s.d. Curves were fitted using OriginPro 2021 (Origin Lab) according to a modified Hill equation:1 y=cI+(cF−cI)[…]/(k^n+x^n) where y is the percentage of cleaved DNA, cI is the initial cleavage, cF is the final cleavage, k is the CC50 (the concentration of inhibitor that results in cleavage of 50% of DNA), n is a slope factor and x is the inhibitor concentration.
# [1] = target: T2, E. coli gyrase GyrB^K447W (Escherichia coli, UniProt P0AES4+P0AES6, K447W); experiment: DNA gyrase cleavage assay (CC50, % cleaved DNA)
# T2 construct: alternative cryo-EM approach involving full-length E. coli gyrase; 10-His (cleaved yes); Twin-Strep (cleaved yes); made in house
# Procedure: as §2, §3, §1, §4
# E. coli gyrase GyrA^S83L = target: T3, E. coli gyrase GyrA^S83L (Escherichia coli, UniProt P0AES4+P0AES6, S83L); experiment: DNA gyrase cleavage assay (CC50, % cleaved DNA); settings: for % cleaved DNA Average: average of replicates
# T3 construct: alternative cryo-EM approach involving full-length E. coli gyrase; 10-His (cleaved yes); Twin-Strep (cleaved yes); made in house
# Procedure: as §2, §3, §1, §4
# E. coli gyrase GyrA^V70A = target: T4, E. coli gyrase GyrA^V70A (Escherichia coli, UniProt P0AES4+P0AES6, V70A); experiment: DNA gyrase cleavage assay (CC50, % cleaved DNA); settings: for % cleaved DNA Average: average of replicates
# T4 construct: alternative cryo-EM approach involving full-length E. coli gyrase; 10-His (cleaved yes); Twin-Strep (cleaved yes); made in house
# Procedure: as §2, §3, §1, §4
# [2] = target: T5, E. coli gyrase GyrA^M120A (Escherichia coli, UniProt P0AES4+P0AES6, M120A); experiment: DNA gyrase cleavage assay (CC50, % cleaved DNA); settings: for % cleaved DNA Average: average of replicates
# T5 construct: alternative cryo-EM approach involving full-length E. coli gyrase; 10-His (cleaved yes); Twin-Strep (cleaved yes); made in house
# Procedure: as §2, §3, §1, §4
# E. coli gyrase GyrA^A67Q = target: T6, E. coli gyrase GyrA^A67Q (Escherichia coli, UniProt P0AES4+P0AES6, A67Q); experiment: DNA gyrase cleavage assay (CC50, % cleaved DNA); settings: for % cleaved DNA Average: average of replicates
# T6 construct: alternative cryo-EM approach involving full-length E. coli gyrase; 10-His (cleaved yes); Twin-Strep (cleaved yes); made in house
# Procedure: as §2, §3, §1, §4
# Chain of E. coli Topo IV (P0AFI2 whole entry): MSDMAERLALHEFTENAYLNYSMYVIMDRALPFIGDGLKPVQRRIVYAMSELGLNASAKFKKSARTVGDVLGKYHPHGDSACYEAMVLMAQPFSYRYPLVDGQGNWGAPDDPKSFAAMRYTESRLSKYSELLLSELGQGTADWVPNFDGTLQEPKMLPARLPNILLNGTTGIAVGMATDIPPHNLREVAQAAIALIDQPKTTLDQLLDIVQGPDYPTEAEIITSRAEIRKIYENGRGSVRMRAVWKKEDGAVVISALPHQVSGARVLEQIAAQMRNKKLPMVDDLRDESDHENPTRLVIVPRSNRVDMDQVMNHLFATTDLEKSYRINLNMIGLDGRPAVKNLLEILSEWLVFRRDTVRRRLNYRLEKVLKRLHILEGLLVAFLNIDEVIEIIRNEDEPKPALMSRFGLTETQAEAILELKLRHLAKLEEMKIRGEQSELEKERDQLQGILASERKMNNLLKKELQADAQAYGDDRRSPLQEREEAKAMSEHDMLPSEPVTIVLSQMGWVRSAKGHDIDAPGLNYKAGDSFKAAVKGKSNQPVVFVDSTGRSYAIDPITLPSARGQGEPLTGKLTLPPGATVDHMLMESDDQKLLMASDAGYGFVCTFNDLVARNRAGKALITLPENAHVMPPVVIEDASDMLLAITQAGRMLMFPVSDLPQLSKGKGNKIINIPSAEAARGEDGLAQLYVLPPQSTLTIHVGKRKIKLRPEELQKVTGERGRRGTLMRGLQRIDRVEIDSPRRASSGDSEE
# Chain of E. coli Topo IV (P20083 whole entry): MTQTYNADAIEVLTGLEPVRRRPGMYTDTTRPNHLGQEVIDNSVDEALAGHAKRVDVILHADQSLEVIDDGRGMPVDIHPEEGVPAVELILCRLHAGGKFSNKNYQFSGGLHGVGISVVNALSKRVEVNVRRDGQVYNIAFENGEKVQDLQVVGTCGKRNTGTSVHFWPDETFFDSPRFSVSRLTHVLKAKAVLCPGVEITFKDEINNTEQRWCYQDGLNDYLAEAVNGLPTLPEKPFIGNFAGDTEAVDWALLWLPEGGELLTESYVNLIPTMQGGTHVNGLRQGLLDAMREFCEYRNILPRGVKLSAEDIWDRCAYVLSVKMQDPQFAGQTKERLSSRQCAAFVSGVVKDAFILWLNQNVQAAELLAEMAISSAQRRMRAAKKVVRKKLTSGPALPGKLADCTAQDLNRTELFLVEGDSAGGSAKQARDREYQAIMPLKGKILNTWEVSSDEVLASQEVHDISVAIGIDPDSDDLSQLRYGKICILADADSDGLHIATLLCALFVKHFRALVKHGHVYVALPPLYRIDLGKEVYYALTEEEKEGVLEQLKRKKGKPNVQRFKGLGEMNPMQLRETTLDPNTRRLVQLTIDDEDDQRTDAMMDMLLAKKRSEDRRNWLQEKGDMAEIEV
structure (smiles),measurement,setting,value
COc1c(NC(=O)c2ccc(NC(=O)c3ccc(NC(=O)[C@H](CC#N)NC(=O)c4ccc(NC(=O)/C(C)=C/c5ccc(O)cc5)cc4)cc3)c(OC)c2O)ccc(C(=O)O)c1O [Albicidin],concentration required for full inhibition of Topo IV relaxation activity,E. coli Topo IV,100 µM
same,% maximal cleavage,"WT E. coli gyrase; GyraseWT, average of 3 independent assays",81±2%
same,EC50,"WT E. coli gyrase; Gyrase^WT, mean ± s.d. of triplicate, read-out: CC50 (the source's name)",46 ± 3.7 nM
same,% cleaved DNA Average,WT E. coli gyrase; albicidin 0.0005 µM,3.748%
same,% cleaved DNA Average,WT E. coli gyrase; albicidin 0.0025 µM,5.277%
same,% cleaved DNA Average,WT E. coli gyrase; albicidin 0.005 µM,6.761%
same,% cleaved DNA Average,WT E. coli gyrase; albicidin 0.01 µM,11.8941%
same,% cleaved DNA Average,WT E. coli gyrase; albicidin 0.025 µM,24.028%
same,% cleaved DNA Average,WT E. coli gyrase; albicidin 0.05 µM,56.851%
same,% cleaved DNA Average,WT E. coli gyrase; albicidin 0.1 µM,62.7758%
same,% cleaved DNA Average,WT E. coli gyrase; albicidin 0.25 µM,75.7465%
same,% cleaved DNA Average,WT E. coli gyrase; albicidin 0.5 µM,79.6286%
same,% cleaved DNA Average,WT E. coli gyrase; albicidin 1 µM,76.3016%
same,% cleaved DNA Average,WT E. coli gyrase; albicidin 10 µM,81.3635%
same,% maximal cleavage,"[1]; GyrBK447W, average of 3 independent assays",27±2%
same,decrease of the maximal cleavage,[1]; GyrB^K447W vs WT gyrase,3 fold
same,increase in CC50,"[1]; GyrB^K447W vs WT gyrase, 60 min",10 fold
same,EC50,"[1]; GyrB^K447W, mean ± s.d. of triplicate",452 ± 108 nM
same,increase in CC50,E. coli gyrase GyrA^S83L; 1 h,3 fold
same,% maximal cleavage,"E. coli gyrase GyrA^S83L; GyrAS83L, average of 3 independent assays",68±5%
same,EC50,"E. coli gyrase GyrA^S83L; GyrA^S83L, mean ± s.d. of triplicate",129 ± 43 nM
same,% cleaved DNA Average,E. coli gyrase GyrA^S83L; albicidin 0.0025 µM,2.652%
same,% cleaved DNA Average,E. coli gyrase GyrA^S83L; albicidin 0.005 µM,2.693%
same,% cleaved DNA Average,E. coli gyrase GyrA^S83L; albicidin 0.01 µM,2.768%
same,% cleaved DNA Average,E. coli gyrase GyrA^S83L; albicidin 0.025 µM,5.278%
same,% cleaved DNA Average,E. coli gyrase GyrA^S83L; albicidin 0.05 µM,12.476%
same,% cleaved DNA Average,E. coli gyrase GyrA^S83L; albicidin 0.1 µM,26.0782%
same,% cleaved DNA Average,E. coli gyrase GyrA^S83L; albicidin 0.5 µM,63.6873%
same,% cleaved DNA Average,E. coli gyrase GyrA^S83L; albicidin 1 µM,64.6552%
same,% cleaved DNA Average,E. coli gyrase GyrA^S83L; albicidin 5 µM,67.9433%
same,increase in CC50,E. coli gyrase GyrA^V70A; 1 h,> 25 fold
same,% maximal cleavage,"E. coli gyrase GyrA^V70A; GyrAV70A, average of 3 independent assays",80±2%
same,EC50,"E. coli gyrase GyrA^V70A; GyrA^V70A, cell prints its own unit",1240 nM
same,% cleaved DNA Average,E. coli gyrase GyrA^V70A; albicidin 0.025 µM,3.14%
same,% cleaved DNA Average,E. coli gyrase GyrA^V70A; albicidin 0.05 µM,4.791%
same,% cleaved DNA Average,E. coli gyrase GyrA^V70A; albicidin 0.1 µM,4.574%
same,% cleaved DNA Average,E. coli gyrase GyrA^V70A; albicidin 0.25 µM,12.5575%
same,% cleaved DNA Average,E. coli gyrase GyrA^V70A; albicidin 0.5 µM,14.0393%
same,% cleaved DNA Average,E. coli gyrase GyrA^V70A; albicidin 1 µM,46.9741%
same,% cleaved DNA Average,E. coli gyrase GyrA^V70A; albicidin 5 µM,65.2533%
same,% cleaved DNA Average,E. coli gyrase GyrA^V70A; albicidin 10 µM,79.6585%
same,% cleaved DNA Average,E. coli gyrase GyrA^V70A; albicidin 50 µM,77.0866%
same,% maximal cleavage,"[2]; GyrAM120A, average of 3 independent assays",72±3%
same,EC50,"[2]; GyrA^M120A, mean ± s.d. of triplicate",50 ± 11 nM
same,% cleaved DNA Average,[2]; albicidin 0.0005 µM,4.819%
same,% cleaved DNA Average,[2]; albicidin 0.001 µM,6.609%
same,% cleaved DNA Average,[2]; albicidin 0.0025 µM,6.667%
same,% cleaved DNA Average,[2]; albicidin 0.005 µM,6.183%
same,% cleaved DNA Average,[2]; albicidin 0.01 µM,19.8754%
same,% cleaved DNA Average,[2]; albicidin 0.025 µM,25.7528%
same,% cleaved DNA Average,[2]; albicidin 0.05 µM,41.0477%
same,% cleaved DNA Average,[2]; albicidin 0.1 µM,46.9644%
same,% cleaved DNA Average,[2]; albicidin 0.5 µM,60.6731%
same,% cleaved DNA Average,[2]; albicidin 1 µM,72.349%
same,increase in CC50,E. coli gyrase GyrA^A67Q; 1 h,more than 10 fold
same,% maximal cleavage,"E. coli gyrase GyrA^A67Q; GyrAA67Q, average of 3 independent assays",83±1%
same,EC50,"E. coli gyrase GyrA^A67Q; GyrA^A67Q, mean ± s.d. of triplicate",610 ± 124 nM
same,% cleaved DNA Average,E. coli gyrase GyrA^A67Q; albicidin 0.01 µM,3.538%
same,% cleaved DNA Average,E. coli gyrase GyrA^A67Q; albicidin 0.025 µM,4.787%
same,% cleaved DNA Average,E. coli gyrase GyrA^A67Q; albicidin 0.05 µM,6.475%
same,% cleaved DNA Average,E. coli gyrase GyrA^A67Q; albicidin 0.1 µM,6.201%
same,% cleaved DNA Average,E. coli gyrase GyrA^A67Q; albicidin 0.25 µM,17.9877%
same,% cleaved DNA Average,E. coli gyrase GyrA^A67Q; albicidin 0.5 µM,34.7807%
same,% cleaved DNA Average,E. coli gyrase GyrA^A67Q; albicidin 1 µM,60.5747%
same,% cleaved DNA Average,E. coli gyrase GyrA^A67Q; albicidin 5 µM,76.5607%
same,% cleaved DNA Average,E. coli gyrase GyrA^A67Q; albicidin 10 µM,82.9213%
same,% cleaved DNA Average,E. coli gyrase GyrA^A67Q; albicidin 25 µM,77.2008%
same,% cleaved DNA Average,E. coli gyrase GyrA^A67Q; albicidin 50 µM,74.453%
